Source: the NIST ThermoML archive (doi:10.1021/je200903m)

Details: Liquid, isochoric method

CCn1cc[n+](C)c1.O=S(=O)([O-])C(F)(F)F [1-ethyl-3-methylimidazolium trifluoromethanesulfonate]
Details	mass density [kg/m3]
264.14 K, 39698 kPa	1434.17
264.21 K, 29714 kPa	1429.2
264.31 K, 10134 kPa	1419.79
265.07 K, 1265.2 kPa	1414.41
271.03 K, 50162 kPa	1433.46
271.03 K, 50199 kPa	1433.45
271.04 K, 9677.3 kPa	1413.82
271.04 K, 11097 kPa	1414.79
271.04 K, 19702 kPa	1419.12
271.04 K, 29909 kPa	1424.08
271.04 K, 30156 kPa	1424.07
271.04 K, 40035 kPa	1428.5
271.04 K, 40309 kPa	1428.49
271.04 K, 60071 kPa	1437.92
271.05 K, 20286 kPa	1419.1
271.4 K, 1190.5 kPa	1408.62
272.28 K, 2655.9 kPa	1408.53
277.45 K, 49840 kPa	1427.83
277.68 K, 39776 kPa	1423.39
277.8 K, 30125 kPa	1418.42
277.84 K, 10946 kPa	1407.96
277.84 K, 19967 kPa	1413.12
284.58 K, 20183 kPa	1407.3
284.65 K, 40227 kPa	1417.71
284.69 K, 60421 kPa	1427.09
284.73 K, 50105 kPa	1422.67
284.93 K, 30204 kPa	1412.4
285.1 K, 728.1 kPa	1397.61
291.42 K, 29930 kPa	1406.61
291.49 K, 49838 kPa	1417.02
291.92 K, 10046 kPa	1396.94
291.92 K, 41361 kPa	1412.67
291.94 K, 40088 kPa	1411.69
292.62 K, 61503 kPa	1421.86
298.19 K, 124.2 kPa	1386.18
298.19 K, 39944 kPa	1405.91
299.14 K, 60111 kPa	1416.26
299.19 K, 50157 kPa	1410.96
299.54 K, 20406 kPa	1396.18
300.18 K, 1687.5 kPa	1385.35
305.75 K, 49851 kPa	1405.17
306.58 K, 60078 kPa	1410.23
306.75 K, 10122 kPa	1384.72
306.76 K, 29599 kPa	1395.48
313.35 K, 59888 kPa	1404.41
314.04 K, 19458 kPa	1384.01
314.64 K, 40402 kPa	1394.69
315.41 K, 1377.5 kPa	1372.29
322.27 K, 50268 kPa	1393.94
322.29 K, 30090 kPa	1383.21
322.3 K, 9799.1 kPa	1371.63
329.98 K, 59857 kPa	1393.19
330.68 K, 40501 kPa	1382.4
331.49 K, 1256.6 kPa	1358.62
332.56 K, 22229 kPa	1370.66
338.11 K, 9067.3 kPa	1358
338.47 K, 50063 kPa	1381.64
339.28 K, 30155 kPa	1370.02
346.74 K, 59641 kPa	1380.85
347.76 K, 20122 kPa	1357.09
347.76 K, 40116 kPa	1369.21
